This is an account of results in PubChem BioAssay (NCI).

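Tested at 5 concentrations; 48 h exposure; 96-well plates; endpoints linearly interpolated, else capped at highest concentration. TGI is the concentration that stops growth completely.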 A value given as a limit tells only on which side of the number the result lay.

Among the test systems are CAKI-1 renal; NCI-H460 lung; MDA-N; UACC-62 melanoma; K-562 leukemia; SK-MEL-28 melanoma; SNB-75 CNS; A549 NSCLC; EKVX NSCLC; MOLT-4 leukemia.
Holding throughout (experiment): inhibition of tumour cell growth, NCI panel, 48 h

For the compound `c1csc(-c2ccc(-c3cccs3)c3nsnc23)c1`, the TGI was over 100 µM in the experiment on CAKI-1 renal; over 100 µM in the experiment on NCI-H460 lung; over 73.4 µM in the experiment on MDA-N; over 100 µM in the experiment on UACC-62 melanoma; 37.9 µM with K-562 leukemia; over 54.2 µM in the experiment with SK-MEL-28 melanoma. In addition, the TGI with SNB-75 CNS is over 100 µM; with A549 NSCLC it was over 100 µM; with EKVX NSCLC it was over 100 µM; in the experiment on MOLT-4 leukemia it was 30.3 µM.
Turning to `O=C1CC(C(O)(C(F)(F)F)C(F)(F)Cl)CCC1C(O)(C(F)(F)F)C(F)(F)Cl` (stereo not given), the TGI in the experiment with CAKI-1 renal, in the experiment with NCI-H460 lung, in the experiment with MDA-N, in the experiment with UACC-62 melanoma, with K-562 leukemia and in the experiment with SK-MEL-28 melanoma was over 10 µM throughout. The TGI with SNB-75 CNS, with A549 NSCLC, in the experiment on EKVX NSCLC and in the experiment with MOLT-4 leukemia was over 10 µM each time.
In the case of `C[C@@H]1S[C@H](c2ccccc2F)N2Cc3ccccc3N=C12`, the TGI with CAKI-1 renal is over 100 µM; in the experiment with NCI-H460 lung it was over 100 µM; in the experiment with MDA-N it was 48.4 µM; in the experiment on UACC-62 melanoma it was 54.8 µM; in the experiment with K-562 leukemia it was 65.9 µM; in the experiment on SK-MEL-28 melanoma, over 100 µM. Moreover, the TGI with SNB-75 CNS is 97.4 µM; in the experiment on A549 NSCLC, over 100 µM; in the experiment with EKVX NSCLC it was 95.9 µM; in the experiment on MOLT-4 leukemia, 46.7 µM.
With `CC[n+]1[b-](C(C)(C)C)n(/N=C/C(C)(C)C)[b-](C(C)(C)C)[n+]1CC`, the TGI with CAKI-1 renal, in the experiment on NCI-H460 lung, in the experiment with MDA-N, in the experiment on UACC-62 melanoma, with K-562 leukemia and in the experiment on SK-MEL-28 melanoma was over 100 µM in each case. For the same compound, the TGI in the experiment with SNB-75 CNS, in the experiment on A549 NSCLC, with EKVX NSCLC and in the experiment on MOLT-4 leukemia was over 100 µM each time.
Consider `O=C(O)C(SC1=NNC2(C(=O)N1)c1ccccc1-c1ccccc12)SC1=NNC2(C(=O)N1)c1ccccc1-c1ccccc12`, for which the TGI in the experiment on CAKI-1 renal, in the experiment on NCI-H460 lung, in the experiment with MDA-N, in the experiment on UACC-62 melanoma, with K-562 leukemia and in the experiment with SK-MEL-28 melanoma was over 10 µM in each case. Further, the TGI in the experiment on SNB-75 CNS, in the experiment on A549 NSCLC, in the experiment with EKVX NSCLC and in the experiment with MOLT-4 leukemia was over 10 µM throughout.
With `COC(=O)c1c2c(cc3c1CCC3)CCC2`, the TGI with CAKI-1 renal, in the experiment on NCI-H460 lung, with MDA-N, with UACC-62 melanoma, with K-562 leukemia and in the experiment with SK-MEL-28 melanoma was over 100 µM in each case. Also, the TGI in the experiment with SNB-75 CNS, in the experiment on A549 NSCLC, in the experiment with EKVX NSCLC and with MOLT-4 leukemia was over 100 µM each time.
Turning to `C/C1=C\CC[C@@]2(C)O[C@@H]2C[C@@H](C2(C)CO2)CC/C(C)=C/CC1` (stereo not given in full), the TGI with CAKI-1 renal was 39.9 µM; with NCI-H460 lung, 37.8 µM; with MDA-N, 69.7 µM; in the experiment on UACC-62 melanoma, 40.4 µM; in the experiment on K-562 leukemia, over 100 µM; in the experiment with SK-MEL-28 melanoma, 57.6 µM. Moreover, the TGI with SNB-75 CNS is 93.7 µM; in the experiment on A549 NSCLC, 36.5 µM; with EKVX NSCLC it was 36.1 µM; in the experiment on MOLT-4 leukemia, over 100 µM.
Regarding `C[C@@H](Cl)[C@H]1CCCN(Cc2ccc(Br)cc2)C1`, the TGI with CAKI-1 renal, with NCI-H460 lung, in the experiment with MDA-N, with UACC-62 melanoma, with K-562 leukemia and in the experiment with SK-MEL-28 melanoma was over 12.5 µM each time. Besides, the TGI in the experiment with SNB-75 CNS, in the experiment on A549 NSCLC, with EKVX NSCLC and with MOLT-4 leukemia was over 12.5 µM in each case.
For `O=C(CNc1c(Cl)cccc1Cl)NC1C=Cc2ccc(S(=O)(=O)Nc3c(Cl)cccc3Cl)cc2C1=O` (stereo not given), the TGI in the experiment with CAKI-1 renal, with NCI-H460 lung, in the experiment with MDA-N, with UACC-62 melanoma, in the experiment on K-562 leukemia and with SK-MEL-28 melanoma was over 100 µM throughout. Besides, the TGI in the experiment with SNB-75 CNS, with A549 NSCLC, with EKVX NSCLC and in the experiment on MOLT-4 leukemia was over 100 µM throughout.
Consider `CC(O)CCCOC(c1ccccc1)(c1ccccc1)c1ccccc1` (stereo not given), for which the TGI is 29.9 µM in the experiment with CAKI-1 renal; 30.6 µM in the experiment on NCI-H460 lung; 31.7 µM in the experiment with MDA-N; 27 µM in the experiment with UACC-62 melanoma; over 100 µM with K-562 leukemia; 30.1 µM in the experiment with SK-MEL-28 melanoma. Further, the TGI in the experiment on SNB-75 CNS was 25.8 µM; in the experiment on A549 NSCLC, 27.3 µM; with EKVX NSCLC, 28.1 µM; in the experiment with MOLT-4 leukemia, over 50.9 µM.
For `O=C(O)c1cc(-c2ccc3c(O)c(O)ccc3c2)ccc1O`, the TGI in the experiment on CAKI-1 renal is 25.6 µM; in the experiment with NCI-H460 lung it was over 7.5 µM; in the experiment on MDA-N, over 75 µM; in the experiment with UACC-62 melanoma it was over 75 µM; in the experiment on K-562 leukemia it was 32.2 µM; with SK-MEL-28 melanoma, over 75 µM. Moreover, the TGI with SNB-75 CNS was over 75 µM; in the experiment with A549 NSCLC, over 75 µM; with EKVX NSCLC it was over 75 µM; in the experiment with MOLT-4 leukemia it was 33.2 µM.
